In patent US11274115B2, “Imidazoquinoline derivatives and their use in therapy” (GLAXOSMITHKLINE BIOLOGICALS SA, priority 2016, dated 2022):
Read-outs that look alike come from different tables or passages of the source.

Legend:
Assay type in all cases: cell-based
human TLR7 = target: T1, human TLR7 (Homo sapiens, UniProt Q9NYK1); assay: hTLR7 agonist reporter assay in HEK293 cells (NFκB-SEAP); settings: for hTLR7/8 ratio: hTLR7 ED50 over hTLR8 ED50; for EC50: read-out: hTLR7 ED50; for hTLR7 agonist activity, in words: Table 3, FIG. 5
T1 construct: host or cells: HEK293
T1 sequence (Q9NYK1 27-1049): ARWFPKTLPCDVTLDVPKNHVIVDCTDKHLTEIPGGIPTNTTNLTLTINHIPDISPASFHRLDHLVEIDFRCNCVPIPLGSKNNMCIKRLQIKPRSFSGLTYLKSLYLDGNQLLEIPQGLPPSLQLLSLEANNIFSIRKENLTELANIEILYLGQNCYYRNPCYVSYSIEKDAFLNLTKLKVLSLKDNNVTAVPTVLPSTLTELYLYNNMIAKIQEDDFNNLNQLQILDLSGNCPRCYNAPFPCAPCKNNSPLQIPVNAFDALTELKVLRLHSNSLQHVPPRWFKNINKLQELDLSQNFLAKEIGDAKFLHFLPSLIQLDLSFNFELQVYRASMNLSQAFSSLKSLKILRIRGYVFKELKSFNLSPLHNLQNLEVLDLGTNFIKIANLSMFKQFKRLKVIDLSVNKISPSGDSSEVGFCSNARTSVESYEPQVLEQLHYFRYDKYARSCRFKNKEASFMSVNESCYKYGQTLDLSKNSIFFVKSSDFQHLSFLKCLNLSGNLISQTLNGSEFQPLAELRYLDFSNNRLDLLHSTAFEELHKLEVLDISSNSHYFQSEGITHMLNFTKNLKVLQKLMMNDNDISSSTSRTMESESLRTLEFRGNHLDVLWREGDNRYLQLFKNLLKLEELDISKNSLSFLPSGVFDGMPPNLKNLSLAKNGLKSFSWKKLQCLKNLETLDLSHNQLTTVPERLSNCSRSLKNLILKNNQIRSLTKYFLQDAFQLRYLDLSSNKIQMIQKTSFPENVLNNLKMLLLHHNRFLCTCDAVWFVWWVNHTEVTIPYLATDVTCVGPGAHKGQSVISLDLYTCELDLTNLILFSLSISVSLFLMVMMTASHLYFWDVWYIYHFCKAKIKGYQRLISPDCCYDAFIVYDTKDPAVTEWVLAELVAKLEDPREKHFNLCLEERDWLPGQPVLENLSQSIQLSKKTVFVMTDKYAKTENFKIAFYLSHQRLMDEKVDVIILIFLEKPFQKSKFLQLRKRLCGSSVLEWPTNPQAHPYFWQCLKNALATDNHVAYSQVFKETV
Experimental: (§1) Assay for hTLR7 and hTLR8 Agonist Activity in HEK-293 Cells
(§2) Determination of TLR agonist activity was performed using the HEK293 […]. This assay measures TLR7 and TLR8 selectivity and potency of the compounds tested. HEK293 cells expressing human TLR7 or TLR8 and NFκB responsive Secreted Embryonic Alkaline Phosphatase (SEAP) reporter gene were obtained from InvivoGen (San Diego, Calif.). These cells were maintained in culture media of Dulbecco's Modified Eagle Medium (DMEM) (Invitrogen, Grand Island, N.Y.), 10% Fetal Bovine Serum (FBS) (Sigma, St. Louis, Mo.) and selection antibiotics (Invitrogen, and Invivogen). HEK293 stably transfected with human TLR7 (hTLR7) or human TLR8 (hTLR8) were stimulated for 24 h with aqueous formulations of test compounds and culture supernatants were analyzed for NFκB activation using the colorimetric SEAP detection kit QuantBlue (InvivoGen).

human TLR8 = target: T2, human TLR8 (Homo sapiens, UniProt Q9NR97); assay: hTLR8 agonist reporter assay in HEK293 cells (NFκB-SEAP); settings: for EC50: read-out: hTLR8 ED50; for hTLR8 agonist activity, in words: Table 3, FIG. 6
T2 construct: host or cells: HEK293
T2 sequence (Q9NR97 27-1041): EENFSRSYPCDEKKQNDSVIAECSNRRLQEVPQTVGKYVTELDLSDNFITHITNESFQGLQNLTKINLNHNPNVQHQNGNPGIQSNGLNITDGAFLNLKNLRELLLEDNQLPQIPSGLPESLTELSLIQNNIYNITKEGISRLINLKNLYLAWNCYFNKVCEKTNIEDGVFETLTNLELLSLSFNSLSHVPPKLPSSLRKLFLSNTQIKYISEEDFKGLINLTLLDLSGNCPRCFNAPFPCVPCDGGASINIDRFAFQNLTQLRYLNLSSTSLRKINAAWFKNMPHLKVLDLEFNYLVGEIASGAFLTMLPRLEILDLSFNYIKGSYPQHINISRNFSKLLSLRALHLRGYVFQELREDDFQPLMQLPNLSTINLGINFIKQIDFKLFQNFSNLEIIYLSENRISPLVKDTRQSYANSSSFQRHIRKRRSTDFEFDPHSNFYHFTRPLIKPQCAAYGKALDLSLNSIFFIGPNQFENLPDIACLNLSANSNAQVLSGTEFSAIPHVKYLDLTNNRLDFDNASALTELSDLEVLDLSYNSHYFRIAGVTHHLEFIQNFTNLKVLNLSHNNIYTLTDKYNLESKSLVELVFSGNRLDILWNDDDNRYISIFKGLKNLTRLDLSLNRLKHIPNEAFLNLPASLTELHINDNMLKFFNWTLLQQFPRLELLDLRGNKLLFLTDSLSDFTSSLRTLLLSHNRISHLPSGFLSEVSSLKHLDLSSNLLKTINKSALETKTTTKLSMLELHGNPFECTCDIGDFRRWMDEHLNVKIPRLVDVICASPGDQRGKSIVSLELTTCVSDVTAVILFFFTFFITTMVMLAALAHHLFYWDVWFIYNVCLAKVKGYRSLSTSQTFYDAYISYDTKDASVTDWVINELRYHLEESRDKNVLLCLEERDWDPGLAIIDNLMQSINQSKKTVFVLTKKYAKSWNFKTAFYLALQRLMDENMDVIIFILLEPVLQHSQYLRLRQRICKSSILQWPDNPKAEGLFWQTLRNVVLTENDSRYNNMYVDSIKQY
Experimental: as §1, §2

[1] = tested on: human peripheral blood mononuclear cells (hPBMCs); assay: IFN-α induction in hPBMCs; settings: 24 h
Experimental: (§3) Assays to Measure Cytokine Induction
(§4) Test compounds were evaluated for cytokine induction in human peripheral blood mononuclear cells (hPBMCs).
(§5) Primary human PBMCs were isolated from fresh blood from healthy donors via Ficoll gradient separation and plated at 0.5×10^6 cells/well in 96-well tissue culture plates (RPMI-1640 plus 10% FBS). hPBMCs were maintained with RPMI-1640 culture media (Invitrogen, Grand Island, N.Y.), antibiotics (Invitrogen) and 10% FBS (Sigma).
(§6) Incubation and Assays for IFN-γ, IFN-α and TNF-α
(§7) hPBMCs were stimulated for 24 h with aqueous formulations of test compounds. Culture supernatants were analyzed for TNF-α and IFN-γ induction using multiplex kits (FluoroKine multiplex kits from R&D Systems, Minneapolis, Minn.) and for IFN-α induction using human IFN-α VeriKine ELISA kit (Pestka Biomedical Laboratories, Inc., Piscataway, N.J.).

[2] = tested on: human peripheral blood mononuclear cells (hPBMCs); assay: TNF-α induction in hPBMCs; settings: 24 h
Experimental: as §3, §4, §5, §6, §7

[3] = tested on: human peripheral blood mononuclear cells (hPBMCs); assay: IFN-γ induction in hPBMCs; settings: 24 h
Experimental: as §3, §4, §5, §6, §7

[4] = Table 2, FIG. 3, another occasion, * = only very low levels of NFKB activation were detected
[5] = Table 3, FIG. 5, another occasion, * = only very low levels of NFKB activation were detected
[6] = Table 4, FIG. 7, another occasion
[7] = Table 2, FIG. 4, another occasion, * = only very low levels of NFKB activation were detected
[8] = Table 3, FIG. 6, another occasion, * = only very low levels of NFKB activation were detected
[9] = Table 4, FIG. 8, another occasion
[10] = Table 1, FIG. 1, 24 h stimulation, aqueous formulations
[11] = Table 1, FIG. 2, 24 h stimulation, aqueous formulations

hTLR7/8 ratio (human TLR7; Table 1) | EC50 (human TLR7; [4]) [µM] | hTLR7/8 ratio (human TLR7; Table 2) | EC50 (human TLR7; [5]) [µM] | hTLR7/8 ratio (human TLR7; Table 3) | EC50 (human TLR7; [6]) [µM] | EC50 (human TLR8; [7]) [µM] | EC50 (human TLR8; [8]) [µM] | EC50 (human TLR8; [9]) [µM] | hTLR7 agonist activity, in words (human TLR7) | hTLR8 agonist activity, in words (human TLR8) | Structure (SMILES) | IFN-α induction, in words ([1]; FIG. 14, another occasion) | TNF-α induction, in words ([2]; FIG. 13) | TNF-α induction, in words ([2]; FIG. 15, another occasion) | further results
3.1 | 1 | 2.3 | 1.1 | 1.5 | 1.5 | 0.4 | 0.72 | 0.61 | – | – | CCCCc1nc2c(N)nc3ccccc3c2n1CCO [Comparative Example 1, reference compound] | Weaker effects | potent at inducing TNF-α | effective at inducing TNF-α | hTLR7/8 ratio (human TLR7; Table 4): 2.4; IFN-α induction, in words ([1]; FIG. 16, another occasion): induced little IFN-α; IFN-γ induction, in words ([3]; FIG. 11, another occasion): the most potent at inducing IFN-γ
– | – | – | – | – | 14.6 | – | – | 3.81 | – | – | CCCCCCCCCCCCCCCC(=O)OC[C@H](COP(=O)(O)OCCOc1ccc2c(c1)nc(N)c1nc(CCCC)n(CCO)c12)OC(=O)CCCCCCCCCCCCCCC [Example 7] | – | – | – | –
15.5 | 2.4 | 2.9 | 2.2 | 1.9 | – | 0.8 | 1.1 | – | – | – | CCCCc1nc2c(N)nc3cc(OCCO)ccc3c2n1CCO [Comparative Example 3] | Weaker effects | potent at inducing TNF-α | effective at inducing TNF-α | EC50 (human TLR7; [10]): 1.56 µM; EC50 (human TLR8; [11]): 0.1 µM; IFN-α induction, in words ([1]; FIG. 10): equipotent at inducing IFN-α and these were more potent than Comparative Example 1 and Comparative Example 2 in this assay at a lower dose
– | – | – | 8.7 | 1.5 | – | – | 5.8 | – | very weak agonist of hTLR7 | reasonably potent agonist of hTLR8 | CCCCCCCC/C=C\CCCCCCCC(=O)OC[C@H](COP(=O)(O)OCCOCCOCCOc1ccc2c(c1)nc(N)c1nc(CCCC)n(CCO)c12)OC(=O)CCCCCCC/C=C\CCCCCCCC [Example 6] | potent, but less so than Example 1 | – | effective but less potent | –
– | – | – | 13.2 | 0.8 | – | – | 16.3 | – | quite weak agonist of hTLR7 and hTLR8 | quite weak agonist of hTLR7 and hTLR8 | CCCCc1nc2c(N)nc3cc(OCCOCCOCCO)ccc3c2n1CCO [Comparative Example 5] | did not induce IFN-α | – | effective but less potent | –
– | – | – | – | – | 6.1 | – | – | 0.81 | – | – | CCCCCCCCCCCCCCCC(=O)OC[C@H](COCCOCCOCCOP(=O)(O)OCCOc1ccc2c(c1)nc(N)c1nc(CCCC)n(CCO)c12)OC(=O)CCCCCCCCCCCCCCC [Example 2] | – | – | – | –
– | – | – | 10.5 | 1.6 | – | – | 6.6 | – | very weak agonist of hTLR7 or hTLR8 | very weak agonist of hTLR7 or hTLR8 | CCCCCCCC/C=C\CCCCCCCC(=O)OC[C@H](COP(=O)(O)OCCCCOc1ccc2c(c1)nc(N)c1nc(CCCC)n(CCO)c12)OC(=O)CCCCCCC/C=C\CCCCCCCC [Example 5] | potent but at higher dose | – | very weak effect | –
– | – | – | – | – | – | 31.9 | – | – | – | – | CCCCc1nc2c(N)nc3cc(OCCOP(=O)(O)OCCOCCOCCO[C@H]4CC[C@@]5(C)C(=CC[C@H]6[C@@H]7CC[C@H]([C@H](C)CCCC(C)C)[C@@]7(C)CC[C@@H]65)C4)ccc3c2n1CCO [Example 4] | – | – | – | –
– | – | – | 1.6 | 0.7 | – | – | 2.2 | – | good agonist of hTLR7 and hTLR8 | good agonist of hTLR7 and hTLR8 | CCCCc1nc2c(N)nc3cc(OCCCCO)ccc3c2n1CCO [Comparative Example 4] | did not induce IFN-α | – | effective at inducing TNF-α | –
1.3 | 55.4 | 1.4 | – | – | – | 39.2 | – | – | – | – | CCCCCCCC/C=C\CCCCCCCC(=O)OC[C@H](COP(=O)(O)OCCn1c(CCCC)nc2c(N)nc3ccccc3c21)OC(=O)CCCCCCC/C=C\CCCCCCCC [Comparative Example 2, reference compound] | – | not significantly effective at inducing TNF-α | – | EC50 (human TLR7; [10]): 34.6 µM; EC50 (human TLR8; [11]): 26 µM; IFN-γ induction, in words ([3]; FIG. 9): did not induce any IFN-γ; IFN-γ induction, in words ([3]; FIG. 11, another occasion): did not induce IFN-γ
